Experimental data: patent US8680052B1, “Methods of treating, reducing the incidence of, and/or preventing ischemic events” (The Medicines Company, priority 2013, dated 2014)
Like-named read-outs stand apart in the source and are kept apart here.

System: patients with acute coronary syndromes undergoing PCI
Settings: 30 days; for All-cause mortality OR (95% CI) / IDR OR (95% CI) / MI OR (95% CI) / Mortality/MI/IDR OR (95% CI) / Mortality/Q-wave MI/IDR OR (95% CI) / Mortality/Q-wave MI/Stent thrombosis OR (95% CI) / Stent thrombosis OR (95% CI) / Q-wave MI OR (95% CI): Cangrelor vs Clopidogrel
Description: Patients were eligible for enrollment if they had stable angina, unstable angina, or non-ST-segment elevation (NSTE) MI with obstructive coronary artery disease and were scheduled to undergo PCI.
The infusion began within 30 minutes prior to PCI and continued for at least 2 hours or until the conclusion of the index procedure, whichever was longer. At the treating physician's discretion, the infusion could be continued for 4 hours.
All patients received aspirin 75-325 mg per local site standards. Adjunctive anticoagulants (unfractionated heparin, low molecular weight heparin, bivalirudin, or fondaparinux) and the procedural use of glycoprotein IIb/IIIa inhibitors were determined by the treating physician.
The primary efficacy endpoint was the 48-hour composite of all-cause mortality, MI, or ischemia-driven revascularization. Prespecified secondary efficacy endpoints included the composite of mortality or MI at 48 hours and 30 days; the composite of mortality, MI, or ischemia-driven revascularization at 30 days; the components of the composite endpoints at 48 hours and 30 days; stroke at 48 hours; abrupt closure, threatened abrupt closure, need for urgent coronary artery bypass grafting, or unsuccessful procedure during the index PCI; acute (24 hours) and 48 hours stent thrombosis; and all-cause mortality at 6 months and 1 year.
Rates of MI and ischemia-driven revascularization up to 30 days following the index procedure were assessed. Ischemia-driven revascularization was defined as symptoms of myocardial ischemia leading to urgent (within 24 hours of the last episode of ischemia) revascularization, which must have occurred after the index procedure concluded (i.e., guidewire removal). New electrocardiographic changes, acute pulmonary edema, ventricular arrhythmias, or hemodynamic instability could also constitute evidence of ischemia.
MI was defined by a new Q wave (duration >0.03 seconds) in two contiguous electrocardiographic leads or elevations in creatine kinase (CK) and CK-MB, including a rise of CK-MB≧3 times the local upper limit or normal and, when biomarkers were elevated prior to PCI, an additional 50% above baseline. One baseline troponin measurement was required for patients undergoing urgent PCI. Measurements of CK-MB were obtained at 2, 10, 17, and 24 hours post-PCI.
The primary efficacy analysis was to be determined in the modified intent-to-treat (mITT) population, defined as all randomized patients (excluding STEMI cohort) who received at least one dose of study drug and underwent the index PCI. The safety population consisted of all randomized patients who received any study drug. Patients in the safety analyses were assigned to a treatment arm based on treatment received, not as randomized.

## CSCCNc1nc(SCCC(F)(F)F)nc2c1ncn2[C@@H]1O[C@H](COP(=O)(O)OP(=O)(O)C(Cl)(Cl)P(=O)(O)O)[C@@H](O)[C@H]1O [Cangrelor, cangrelor]
ITT
  Stent thrombosis: 27 (0.6) no. (%)
  All-cause mortality OR (95% CI): 0.852 (0.558, 1.301)
  IDR OR (95% CI): 0.899 (0.637, 1.271)
  MI OR (95% CI): 1.095 (0.929, 1.291)
  Mortality/MI/IDR OR (95% CI): 1.026 (0.884, 1.192)
  Mortality/Q-wave MI/IDR OR (95% CI): 0.856 (0.655, 1.119)
  Mortality/Q-wave MI/Stent thrombosis OR (95% CI): 0.829 (0.599, 1.146)
  Q-wave MI OR (95% CI): 0.601 (0.263, 1.374)
  Stent thrombosis OR (95% CI): 0.902 (0.535, 1.519)
ITT With STEMI
  All-cause mortality: 8 (1.7) no. (%)
  IDR: 16 (3.4) no. (%)
  MI: 20 (4.2) no. (%)
  Mortality/MI/IDR: 36 (7.6) no. (%)
  Mortality/Q-wave MI/IDR: 23 (4.9) no. (%)
  Mortality/Q-wave MI/Stent thrombosis: 14 (3.0) no. (%)
  Q-wave MI: 2 (0.4) no. (%)
  Stent thrombosis: 7 (1.5) no. (%)
  All-cause mortality OR (95% CI): 0.524 (0.222, 1.235)
  IDR OR (95% CI): 1.139 (0.557, 2.331)
  MI OR (95% CI): 1.263 (0.653, 2.441)
  Mortality/MI/IDR OR (95% CI): 0.929 (0.582, 1.480)
  Mortality/Q-wave MI/IDR OR (95% CI): 0.778 (0.447, 1.355)
  Mortality/Q-wave MI/Stent thrombosis OR (95% CI): 0.560 (0.289, 1.085)
  Stent thrombosis OR (95% CI): 0.741 (0.280, 1.962)
ITT Without STEMI
  All-cause mortality: 32 (0.8) no. (%)
  IDR: 46 (1.2) no. (%)
  MI: 298 (7.6) no. (%)
  Mortality/MI/IDR: 345 (8.8) no. (%)
  Mortality/Q-wave MI/IDR: 79 (2.0) no. (%)
  Mortality/Q-wave MI/Stent thrombosis: 54 (1.4) no. (%)
  Q-wave MI: 7 (0.2) no. (%)
  Stent thrombosis: 20 (0.5) no. (%)
  All-cause mortality OR (95% CI): 1.027 (0.626, 1.687)
  IDR OR (95% CI): 0.846 (0.569, 1.257)
  MI OR (95% CI): 1.081 (0.912, 1.281)
  Mortality/MI/IDR OR (95% CI): 1.037 (0.886, 1.215)
  Mortality/Q-wave MI/IDR OR (95% CI): 0.891 (0.656, 1.211)
  Mortality/Q-wave MI/Stent thrombosis OR (95% CI): 0.959 (0.658, 1.397)
  Q-wave MI OR (95% CI): 0.463 (0.189, 1.138)
  Stent thrombosis OR (95% CI): 0.995 (0.535, 1.852)
MITT
  All-cause mortality: 40 (0.9) no. (%)
  IDR: 60 (1.4) no. (%)
  MI: 315 (7.3) no. (%)
  Mortality/MI/IDR: 376 (8.7) no. (%)
  Mortality/Q-wave MI/IDR: 100 (2.3) no. (%)
  Mortality/Q-wave MI/Stent thrombosis: 68 (1.6) no. (%)
  Q-wave MI: 9 (0.2) no. (%)
  Stent thrombosis: 27 (0.6) no. (%)
MITT With STEMI
  All-cause mortality: 8 (1.8) no. (%)
  IDR: 16 (3.7) no. (%)
  MI: 18 (4.1) no. (%)
  Mortality/MI/IDR: 34 (7.8) no. (%)
  Mortality/Q-wave MI/IDR: 23 (5.3) no. (%)
  Mortality/Q-wave MI/Stent thrombosis: 14 (3.2) no. (%)
  Q-wave MI: 2 (0.5) no. (%)
  Stent thrombosis: 7 (1.6) no. (%)
  All-cause mortality OR (95% CI): 0.732 (0.292, 1.838)
  IDR OR (95% CI): 1.165 (0.561, 2.416)
  MI OR (95% CI): 1.146 (0.577, 2.278)
  Mortality/MI/IDR OR (95% CI): 1.015 (0.619, 1.665)
  Mortality/Q-wave MI/IDR OR (95% CI): 0.929 (0.519, 1.663)
  Mortality/Q-wave MI/Stent thrombosis OR (95% CI): 0.665 (0.334, 1.325)
  Stent thrombosis OR (95% CI): 0.705 (0.266, 1.869)
MITT Without STEMI
  All-cause mortality: 32 (0.8) no. (%)
  IDR: 44 (1.1) no. (%)
  MI: 297 (7.7) no. (%)
  Mortality/MI/IDR: 342 (8.9) no. (%)
  Mortality/Q-wave MI/IDR: 77 (2.0) no. (%)
  Mortality/Q-wave MI/Stent thrombosis: 54 (1.4) no. (%)
